# Measurements as given in patent US8501713B2, “Drug combinations for the treatment of duchenne muscular dystrophy” (Summit Corporation PLC, priority 2007, dated 2013).
# Tests used:
# skeletal muscle cells = experiment: Myotube formation and muscle protein expression in primary cultures of skeletal muscle cells; type: cell-based, mice
# Description: GTE and EGCG also display unexpected pro myogenic properties. Primary cultures of skeletal muscle cells were established from both normal and dystrophic mice and treated with GTE and EGCG for 1-7 days. […] The amount of myotubes reached similar level with both agents compared to control thereafter. Western-blot analysis was performed on myotube cultures treated for 7 days.
# mdx mice = experiment: Forced exercise treadmill test: fatigue in mdx mice; type: in vivo, mdx mouse; settings: 50 mg/kg ip daily for 5 weeks in combination with prednisolone, FIG. 4
# Description: The effect of combinations of a compound of formula (1) with a corticosteroid (prednisolone) was examined by measuring fatigue induced by a forced exercise regime in mdx mice. Four to five week-old male mdx mice were forced to exercise (30 min running on horizontal treadmill at 12 m/min twice a week on the same day and at the same time) over a five week treatment course. Each treatment group included 6 mice. At the end of the treatment course, exhaustion was induced by running on a horizontal treadmill at 5 m/min for 5 min, with incremental speed increases of 1 m/min each minute until exhaustion. The total distance run was then measured. […] Sedentary and vehicle only groups acted as negative controls.
# [1] = system: Utrophin A promoter linked to a luciferase reporter gene; experiment: Luciferase reporter assay (murine H2K cells); type: cell-based; settings: for activity at 10 µM: Mus musculus, H2K mdx, luciferase level relative to control, H2K/mdx/Utro A reporter cells, compound 10 μM final concentration, read-out: Activity; for Activity: luciferase reporter assay in murine H2K cells, classified relative to control
# Procedure, shortened: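 Compound at 10 μM final was applied for 48 hrs to plated H2K mdx myoblasts (33° C, 10% CO2, interferon-containing medium) bearing a luciferase gene under the utrophin A promoter. Luminescence from lysed cells served as read-out.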
# mdx hearts = settings: Khairallah et al. (2008); cited from earlier work
SMILES,activity at 10 µM [1],Activity [1],further results
"O=C(O[C@@H]1Cc2c(O)cc(O)cc2O[C@@H]1c1cc(O)c(O)c(O)c1)c1cc(O)c(O)c(O)c1 [EGCG, epigallocatechin gallate]",–,–,"expression of muscle-specific proteins (dystrophin, sarcomeric alpha actinin, MyHC) (skeletal muscle cells; myotube cultures treated for 7 days, Western blot): promoted the expression of several muscle-specific proteins; rate of formation of myotubes (skeletal muscle cells; primary skeletal muscle cell cultures from normal and dystrophic mice, within first 2-4 days, MyHC staining): concentration-dependently stimulated the rate of formation of myotubes"
"C[C@]12C=CC(=O)C=C1CC[C@@H]1[C@@H]2[C@@H](O)C[C@@]2(C)[C@H]1CC[C@]2(O)C(=O)CO [PDN, prednisolone, reference compound]",–,–,exercise-induced fatigue (total distance run to exhaustion) (mdx mice): act in synergy to reduce exercise-induced fatigue
"CCS(=O)(=O)c1ccc2oc(-c3ccc4ccccc4c3)nc2c1 [Example 390, 5-(ethylsulfonyl)-2-(naphthalen-2-yl)benzo[d]oxazole]",301 to 400%,–,exercise-induced fatigue (total distance run to exhaustion) (mdx mice): act in synergy to reduce exercise-induced fatigue
CCCc1nn(C)c2c(=O)[nH]c(-c3cc(S(=O)(=O)N4CCN(C)CC4)ccc3OCC)nc12 [sildenafil],–,–,myocardial contractile performance (mdx hearts): prevents deterioration of myocardial contractile performance
Nc1ccc(Oc2ccc(-c3nc4ccccc4[nH]3)cc2)cc1 [Example 557],–,++++ (Above 401% relative to control),–
"Clc1ccc(-c2cc3cc(-c4ccccc4)ccc3[nH]2)cc1 [Example 339, 2-(4-chlorophenyl)-5-phenyl-1H-indole]",< 200%,–,–
Oc1cccc(-c2nc3ccccc3s2)c1 [Example 594],–,++++ (Above 401% relative to control),–
"Cc1ccc(-c2nc3cc(NC(=O)C(C)C)ccc3s2)cc1 [Example 217, N-(2-p-tolylbenzo[d]thiazol-5-yl)isobutyramide]",> 401%,–,–
"O=[N+]([O-])c1cc2oc(-c3ccc(Cl)cc3)nc2cc1Cl [Example 326, 5-chloro-2-(4-chlorophenyl)-6-nitrobenzo[d]oxazole]",301 to 400%,–,–
Cc1ccc2nc(-c3ccc(NC(=O)c4cccs4)cc3)oc2c1 [Example 672],–,++ (Between 201% and 300% relative to control),–
"O=C(Nc1ccc2oc(-c3ccccc3)nc2c1)c1ccccc1 [Example 59, N-(2-phenylbenzo[d]oxazol-5-yl)benzamide]",201 to 300%,–,–
Nc1ccc2nc(-c3ccc(-c4nc5ccc(N)cc5[nH]4)cc3)[nH]c2c1 [Example 476],–,+ (Up to 200% relative to control),–
Cc1cc(C)c2nc(-c3ccc(N)cc3)oc2c1 [Example 590],–,++++ (Above 401% relative to control),–
CCOc1ccc(-c2nc3cc(N)ccc3o2)cc1 [Example 549],–,+ (Up to 200% relative to control),–
CC(=O)Nc1ccc(-c2nc3ccccc3[nH]2)cc1 [Example 591],–,+++ (Between 301% and 400% relative to control),–
"O=C(C=Cc1ccccc1)Nc1ccc2oc(-c3cccnc3)nc2c1 [Example 52, N-(2-(pyridin-3-yl)benzo[d]oxazol-5-yl)cinnamamide]",< 200%,–,–
Cc1ccc2[nH]c(-c3sc4nc(C)ccc4c3N)nc2c1 [Example 632],–,++++ (Above 401% relative to control),–
"CCS(=O)(=O)c1ccc2oc(-c3cnc4ccccc4c3)nc2c1 [Example 423, 5-(ethylsulfonyl)-2-(quinolin-3-yl)benzo[d]oxazole]",> 401%,–,–
"Cc1ccc(-c2nc3ccc([N+](=O)[O-])cc3o2)cc1 [Example 190, 6-nitro-2-p-tolylbenzo[d]oxazole]",301 to 400%,–,–
O=C(Nc1ccc(-c2nc3ccccc3[nH]2)cc1)C1CCCO1 (stereo not shown) [Example 587],–,+++ (Between 301% and 400% relative to control),–
Cc1ccc2nc(-c3ccc(N)cc3)oc2c1 [Example 506],–,+ (Up to 200% relative to control),–
"O=C(Nc1ccc2oc(-c3cccnc3)nc2c1)c1ccco1 [Example 57, N-(2-(pyridin-3-yl)benzo[d]oxazol-5-yl)furan-2-carboxamide]",< 200%,–,–
"CC(=O)Sc1ccc2oc(-c3ccc(Cl)cc3)nc2c1 [Example 407, S-2-(4-chlorophenyl)benzo[d]oxazol-5-yl ethanethioate]",< 200%,–,–
"Cc1cccc(-c2nc3cc(N)ccc3o2)c1 [Example 196, 2-m-tolylbenzo[d]oxazol-5-amine]",< 200%,–,–
"CC(C)CNc1ccc2oc(-c3ccccc3)nc2c1 [Example 168, N-isobutyl-2-phenylbenzo[d]oxazol-5-amine]",> 401%,–,–
"Clc1ccc2oc(-c3ccccc3)nc2c1 [Example 111, 5-chloro-2-phenylbenzo[d]oxazole]",201 to 300%,–,–
O=C(Nc1ccccc1F)c1sc2ccccc2c1Cl [Example 621],–,++++ (Above 401% relative to control),–
COc1ccc(C(=O)Nc2ccc(-c3nc4ccccc4[nH]3)cc2)cc1OC [Example 494],–,+ (Up to 200% relative to control),–
COc1ccc(CSc2nc3ccccc3[nH]2)cc1 [Example 640],–,+++ (Between 301% and 400% relative to control),–
